In experiment [1] the target is T1, VIM-2 (Pseudomonas aeruginosa, UniProt Q9K2N0).
T1 construct: made in house; host or cells: E. coli BL21 (DE3), plasmid pET24a-VIM-2
Briefly: VIM-2 enzyme-inhibition assay with nitrocefin as substrate (UV-Vis, 482 nm). The experiment is classed as biochemical, P. aeruginosa. The protocol:
The VIM-2 was overexpressed and purified as previously described. In brief, E. coli BL21 (DE3) cells were transelected with plasmid pET24a-VIM-2. A 10 mL overnight culture of these cells in lysogeny broth (LB) was used to inoculate of M9 media containing kanamycin (25 μg/mL). The cells were allowed to grow at 37 °C with shaking until the optical density at 600 nm (OD600) reached 0.6–0.8. VIM-2 expression was induced with 1 mM IPTG at 25 °C overnight. Cells were collected by centrifugation and lysed by sonication. The supernatant collected by centrifugation was dialyzed three times at 4 °C and loaded on a Q-Sepharose column. Bound protein was eluted with a 0–500 mM NaCl gradient in 30 mM Tris, pH 7.6. The further purification of crude VIM-2 was run though a G75 column (GE Healthcare, Boston, MA, USA) and eluted with 20 mM Tris, pH 7.6, containing 150 mM NaCl, and 5% β-mercaptoethanol. Enzyme purity was analyzed by SDS-PAGE, and determined the concentration by measuring the absorption at 280 nm (extinction co-efficient: 39,000 M^−1cm^−1) using the Nanodrop 2000 c spectrophotometer (Thermo Scientific, Waltham, MA, USA).
The percent inhibition (inhibition%, enzyme activity without inhibitor minus residual activity with 100 μM inhibitor) and IC50 (the inhibitor concentrations causing 50% decrease of enzyme activity) values were measured using a previously established enzyme-inhibition assay on an Agilent UV8453 UV−Vis spectrophotometer using 60 μM nitrocefin (monitoring at 482 nm) as a substrate. The 2-triazolylthioacetamides 1a–j, 2a–e, and 3a–e were dissolved with DMSO and diluted with ddH2O. The VIM-2 and nitrocefin were prepared with a Tris buffer (30 mM, pH 7.6). The final concentration of DMSO inhibition experiments was below 1%. The IC50 values were determined in triplicate against VIM-2, where the inhibitor concentrations were varied between 0 and 120 µM, and final concentrations VIM-2 was 0.6 nM. The tested VIM-2 and inhibitors were premixed at room temperature (30 mM Tris, pH 7.6), and then the substrate in the same buffer was added to the mixture, the initial rates of nitrocefin hydrolysis were recorded at each inhibitor concentration. The percentage inhibition was calculated by the equation inhibition% = 1 − (Vi/V0) and IC50 values were calculated by plotting the average inhibition% against inhibitor concentration and fitting of the data.
To evaluate 2-triazolylthioactamides, the VIM-2 was expressed and purified as previously described. The steady-state kinetic assays were conducted on an Agilent UV8453 spectrometer using nitrocefin (60 µM) as a substrate and monitoring its hydrolytic product at 482 nm.
IC50 values of 1a–j against VIM-2 were measured in 30 mM Tris, pH 7.6, in which the concentrations of inhibitors were varied between 0 and 120 µM. […] Moreover, clogP values of 1a–j (Table 1), as predicted by the ALOGPS 2.1 program, are in the range 1.88–3.05, which are similar with many marked antibacterial agents.

For the next experiment, the system named is E. coli DH10B-VIM-2. Briefly: MIC by broth micro-dilution, cefazolin alone or with inhibitors, E. coli producing VIM-2. Particulars: for Decrease in MIC of cefazolin: inhibitor 128 μg/mL. Format: cell-based. The protocol: The minimum inhibitory concentration (MIC) of antibiotics, both alone and in the presence of enzyme inhibitors, was determined using the broth micro-dilution method. E. coli DH10B containing plasmid pBCSK-VIM-2 grown in MH medium to OD600 = 0.45 were used as inocula, after an 84-fold dilution to 1 × 10^5 CFU/mL in MH medium. Cefazolin was dissolved in MH medium to prepare 1024, 512, 256, 128, 64, 32, 16, and 8 for E. coli producing VIM-2 stock solutions, respectively. Compounds 1a–j, 2a–e, and 3a–e were dissolved in DMSO and diluted with MH media to prepare 64 µg/mL stock solutions. The 50 μL prepared stock solutions with different cefazolin concentrations were diluted with a 50 μL inhibitor stock solution, then 100 μL inoculum was added sequentially. The final concentration of both the inhibitor and cefazolin were a quarter of the stock solution concentrations.
The ability of 2-triazolylthioactamides to restore the antimicrobial activity of cefazolin against the bacteria producing VIM-2 was investigated by determining the MICs of β-lactams in the presence and absence of inhibitors (16 μg/mL). E. coli DH10B containing plasmid pBCSK-VIM-2 was used to study these inhibitors. […] Although the strains treated with a high dose of 2-triazolylthioacetamides (128 μg/mL) were still resistant, they are promising in the future.

Experiment [2] has as its target T1, VIM-2. Briefly: Binding affinity to VIM-2 by isothermal titration calorimetry (ITC). Details: species or system P. aeruginosa. The conditions noted are these: for TΔS / ΔH / Ka / ΔG: ITC, 298 K, Tris-HCl; for TΔS / ΔH / ΔG: pH 7.6; for Ka: pH 7.6, single binding site model; for ΔG: ∆G = ∆H − T∆S. How it is done:
Binding affinity measurements were performed by ITC on a Malvern MicroCal-ITC200 at 298 K. The syringe stirring rate was 750 rpm and kept constant. A stock of VIM-2 and inhibitor (1b, 1c, and 1h) were prepared in Tris buffer (30 mM, pH 7.6) with 1% DMSO. The concentration of VIM-2 was 100 μM. Before the injections, the solution of enzyme and inhibitor were degassed by centrifugation (32,583× g, 5 min), respectively. Then, the prepared VIM-2 solution was transferred into the sample cell (210 μL), and the inhibitor (1 mM) in the syringe was titrated into the sample cell by 18 injections (0.5 μL for the first injection and 1.5 μL for the other 17 injections) with 120 s intervals per injection. The heat of dilution for the inhibitor was determined in the control experiment and subtracted from the integrated data before curve fitting. The data were fitted and analyzed with single binding sites using Origin 7.0 software, provided with the instrument.
To investigate the binding affinity of 2-triazolylthioactamides to VIM-2, 1b, 1c, and 1h as enzyme inhibitors were selected based on the inhibitory activity. […] After the best fitting by the single binding site model, the affinity constant (Ka), corresponding dissociation constant (Kd), and thermodynamic parameters (∆H, ΔS, and ΔG) were determined and listed in Table 3.

Experiment [3] deals with E. coli cells without VIM-2. The experiment can be described thus: Antibacterial activity (MIC) against E. coli cells without VIM-2. The experiment is classed as cell-based. Particulars: Escherichia coli, read-out: MIC of cefazolin.

In the case of `O=C(CSc1nnc(-c2ccccc2C(=O)O)[nH]1)Nc1ccccc1Cl` [Compound 1g], inhibition at VIM-2 [1] was half-maximal at 31.4 ± 0.4 µM (IC50). For the same molecule, the “Decrease in MIC of cefazolin” value in the experiment on E. coli DH10B-VIM-2 is 32 fold.

Take `O=C(CSc1nnc(-c2ccccc2C(=O)O)[nH]1)Nc1cccc(Cl)c1` [Compound 1h]: inhibition against VIM-2 [1] was half-maximal at 20.6 ± 0.1 µM (IC50). In the experiment with E. coli DH10B-VIM-2, the “Decrease in MIC of cefazolin” value is 32 fold. On VIM-2 [2], this molecule displayed a Kd of 6.41 µM, a TΔS of 1.98 kcal/mol, a ΔH of -5.10 kcal/mol and a Ka of 156000 M⁻¹. Besides, the ΔG at VIM-2 [2] was -7.08 kcal/mol.

On VIM-2 [1], `O=C(CSc1nnc(-c2ccccc2C(=O)O)[nH]1)Nc1ccccc1[N+](=O)[O-]` [Compound 1i] gave a concentration for half-maximal inhibition (IC50) of 45.2 ± 0.1 µM.

At VIM-2 [1], `O=C(CSc1nnc(-c2ccccc2C(=O)O)[nH]1)Nc1ccccc1` [Compound 1a] had a 50% inhibitory concentration (IC50) of 40.8 ± 0.3 µM.

In turn, `O=C(CSc1nnc(-c2ccccc2C(=O)O)[nH]1)Nc1ccc(Cl)cc1` [Compound 1d] had a half-maximal inhibitory concentration (IC50) against VIM-2 [1] of 52.2 ± 0.5 µM.

As for `O=C(CSc1nnc(-c2ccccc2C(=O)O)[nH]1)Nc1nc2ccccc2s1` [Compound 1c], half-maximal inhibition on VIM-2 [1] (IC50) required 49.1 ± 0.1 µM. Further, the “Decrease in MIC of cefazolin” value in the experiment with E. coli DH10B-VIM-2 was 16 fold. At VIM-2 [2], this molecule returned a Kd of 7.94 µM, a TΔS of 5.34 kcal/mol, a ΔH of -1.61 kcal/mol and a Ka of 126000 M⁻¹. The molecule further gave a ΔG at VIM-2 [2] of -6.95 kcal/mol.

In turn, `O=C(CSc1nnc(-c2ccccc2C(=O)O)[nH]1)NCc1ccccc1` [Compound 1f] came in with an IC50 against VIM-2 [1] of 45.8 ± 0.2 µM.

`Cc1nnc(SCC2=C(C(=O)O)N3C(=O)[C@@H](NC(=O)Cn4cnnn4)[C@H]3SC2)s1` [cefazolin, reference compound]: the MIC turned out to be 128 µg/mL in the experiment on E. coli DH10B-VIM-2 (Escherichia coli, DH10BVIM2, read-out: MIC of cefazolin) and 1 µg/mL in experiment [3].

As for `O=C(CSc1nnc(-c2ccccc2C(=O)O)[nH]1)Nc1ccc([N+](=O)[O-])cc1` [Compound 1e], 38.2 ± 0.3 µM corresponded to half-maximal inhibition on VIM-2 [1] (IC50).

`O=C(CSc1nnc(-c2ccccc2C(=O)O)[nH]1)Nc1nc2ccccc2[nH]1` [Compound 1b]: half-maximal inhibition against VIM-2 [1] (IC50) required 58.6 ± 0.1 µM. The “Decrease in MIC of cefazolin” value with E. coli DH10B-VIM-2 stood at 16 fold. Also, at VIM-2 [2], the Kd is 8.62 µM, the TΔS was 4.26 kcal/mol, the ΔH is -2.66 kcal/mol and the Ka worked out at 116000 M⁻¹. In addition, at VIM-2 [2], the ΔG is -6.92 kcal/mol.

`O=C(CSc1nnc(-c2ccccc2C(=O)O)[nH]1)Nc1cccc([N+](=O)[O-])c1` [Compound 1j] registered an IC50 at VIM-2 [1] of 57.6 ± 0.4 µM.

The values are drawn from paper PMC7022493, “Kinetic, Thermodynamic, and Crystallographic Studies of 2-Triazolylthioacetamides as Verona Integron-Encoded Metallo-β-Lactamase 2 (VIM-2) Inhibitor” (Biomolecules, 2020).
